The structures appear in SMILES notation.

This assay concerns the target T1, human GPBAR1 receptor (Homo sapiens, UniProt Q8TDU6).
T1 construct: expressed in transfected cells
T1 sequence (Q8TDU6 1-330): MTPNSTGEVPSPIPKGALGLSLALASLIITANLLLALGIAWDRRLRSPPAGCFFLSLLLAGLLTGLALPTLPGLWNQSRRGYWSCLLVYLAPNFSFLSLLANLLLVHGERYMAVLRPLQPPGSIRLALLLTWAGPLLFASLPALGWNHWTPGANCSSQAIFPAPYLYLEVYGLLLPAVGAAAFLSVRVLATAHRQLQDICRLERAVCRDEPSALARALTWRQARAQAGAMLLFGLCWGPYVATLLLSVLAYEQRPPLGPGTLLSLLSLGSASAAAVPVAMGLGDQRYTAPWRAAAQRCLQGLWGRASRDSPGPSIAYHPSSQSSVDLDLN
In words: functional cAMP assay in CHO-dhfr(minus) cells expressing human GPBAR1 receptors. Conditions: human EC50, functional cAMP assay, 30 min at 30° C. Type of assay: cell-based. An outline of the steps: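 Agonist cAMP read-out: stable GPBAR1 CHO-dhfr− clone, 30 min compound exposure at 30° C following 30 min IBMX (1 mM) preincubation in Krebs Ringer bicarbonate. Time-resolved energy-transfer detection gives EC50; parental CHO cells serve as counter-screen.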
For orientation: cAMP levels reflect the balance of adenylyl cyclase and phosphodiesterase activity.
On to `Cc1cc(C(CC(c2ccc(-c3ccc(C(=O)O)c(F)c3)cc2)c2ccccc2C)=NO)ccn1` (racemic) [Example 112, 3-Fluoro-4′-[3-[hydroxyimino]-3-(2-methyl-pyridin-4-yl)-1-o-tolyl-propyl]-biphenyl-4-carboxylic acid], for which the EC50 (commonly the concentration at which the effect is half-maximal) was 0.016 µM.

The compound `Cc1cc(/C(C[C@H](c2ccc(C3CCC(C(=O)O)CC3)cc2)c2ccccc2C)=N/O)ccn1` (stereo partly drawn) [Example 490, (R,E)-4-(4-(3-(Hydroxyimino)-3-(2-methylpyridin-4-yl)-1-o-tolylpropyl)phenyl)-cyclohexanecarboxylic acid] yielded an EC50 of 0.024 µM.

The compound `Cc1cc(F)ccc1C(C/C(=N\O)c1ccc(=O)n(C)c1)c1ccc(-c2ccc(C(=O)O)cc2)cc1` (stereo not drawn) [Example 225, (E)-4′-(1-(4-Fluoro-2-methylphenyl)-3-(hydroxyimino)-3-(1-methyl-6-oxo-1,6-dihydropyridin-3-yl)propyl)biphenyl-4-carboxylic acid] returned an EC50 of 0.049 µM.

Take `Cc1cc(C(CC(c2ccc(-c3ccc(C(=O)NCCC(=O)O)cc3)cc2)c2ccccc2C)=NO)ccn1` (racemic) [Example 89, 3-({4′-[3-[Hydroxyimino]-3-(2-methyl-pyridin-4-yl)-1-o-tolyl-propyl]-biphenyl-4-carbonyl}-amino)-propionic acid]: it took 0.007 µM to reach a half-maximal effect (EC50).

Compound `Cc1cc(/C(CC(c2ccc(Br)cc2)c2ccc(F)cc2C)=N/O)ccn1` (stereo not drawn) [Example 140, (E)-3-(4-Bromophenyl)-3-(4-fluoro-2-methylphenyl)-1-(2-methylpyridin-4-yl)propan-1-one oxime] gave a concentration giving a half-maximal response (EC50) of 0.012 µM.

The compound `Cn1cc(/C(CC(c2ccc(C(=O)NC[C@@H](O)CO)cc2)c2ccc(Cl)cc2F)=N/O)ccc1=O` (stereo partly drawn) [Example 312, 4-((E)-1-(4-Chloro-2-fluorophenyl)-3-(hydroxyimino)-3-(1-methyl-6-oxo-1,6-dihydropyridin-3-yl)propyl)-N—((R)-2,3-dihydroxypropyl)benzamide] yielded an EC50 of 0.326 µM.

`Cc1cc(/C(CC(c2ccc(-c3ccc(C(=O)O)cc3)cc2)c2ccccc2C(F)(F)F)=N/O)ccn1` (stereo not drawn) [Example 134, 4′-[3-[(E)-Hydroxyimino]-3-(2-methyl-pyridin-4-yl)-1-(2-trifluoromethyl-phenyl)-propyl]-biphenyl-4-carboxylic acid] had an EC50 of 0.02 µM.

`COc1ccc(C2(C/C(=N/O)c3ccnc(C)c3)CCCCC2)cc1` [Example 159, (Z)-2-[1-(4-Methoxy-phenyl)-cyclohexyl]-1-(2-methyl-pyridin-4-yl)-ethanone oxime] gave an EC50 of 5.56 µM.

`Cc1ccccc1C(CC(=NO)c1ccnc(Cl)c1)c1ccc(Br)cc1` (racemic) [Example 119, 3-(4-Bromo-phenyl)-1-(2-chloro-pyridin-4-yl)-3-o-tolyl-propan-1-one oxime] came in with an EC50 of 0.227 µM. Against the preceding compound, the EC50 is about 24-fold lower.

`Cc1ccccc1C(C/C(=N\O)c1ccc(=O)n(C)c1)c1ccc(C(=O)N2CCC(CC(=O)O)CC2)cc1` (stereo not drawn) [Example 210, (1-{4-[3-[(E)-Hydroxyimino]-3-(1-methyl-6-oxo-1,6-dihydro-pyridin-3-yl)-1-o-tolyl-propyl]-benzoyl}-piperidin-4-yl)-acetic acid] yielded an EC50 of 6.89 µM.

Compound `Cc1cc(Cl)ccc1[C@@H](C/C(=N\O)c1ccc(=O)n(C)c1)c1ccc(-c2ccc(C(=O)O)cc2)cc1` (single isomer, unassigned) [Example 394, (−)-4′-[1-(4-Chloro-2-methyl-phenyl)-3-[(E)-hydroxyimino]-3-(1-methyl-6-oxo-1,6-dihydro-pyridin-3-yl)-propyl]-biphenyl-4-carboxylic acid; compound with triethylamine 1:0.85] registered an EC50 of 0.302 µM. Against the preceding compound, the EC50 is about 23-fold lower.

Consider `Cn1cc(/C(CC(c2ccc(CO)cc2)c2ccc(Cl)cc2F)=N/O)ccc1=O` (stereo not drawn) [Example 317, (E)-5-(3-(4-chloro-2-fluorophenyl)-1-(hydroxyimino)-3-(4-(hydroxymethyl)phenyl)propyl)-1-methylpyridin-2(1H)-one], for which the concentration giving a half-maximal response (EC50) came to 0.01 µM. Against the preceding compound, the EC50 is about 30-fold lower.

`Cc1cc(C(CC(c2cccc(Br)c2)c2ccccc2C)=NO)ccn1` (racemic) [Example 98, 3-(3-Bromo-phenyl)-1-(2-methyl-pyridin-4-yl)-3-o-tolyl-propan-1-one oxime]: the EC50 turned out to be 0.146 µM. Against the preceding compound, the EC50 is about 15-fold higher.

In turn, `O/N=C(\CC(c1ccccc1)c1ccc(-c2cncnc2)cc1)c1ccncc1` (stereo not drawn) [Example 22, (E)-3-Phenyl-1-pyridin-4-yl-3-(4-pyrimidin-5-yl-phenyl)-propan-1-one oxime] gave an EC50 of 0.033 µM. Against the preceding compound, the EC50 is about 4.4-fold lower.

In the case of `Cc1cc(F)ccc1C(C/C(=N\O)c1ccc(=O)n(C)c1)c1ccc(-c2ccc(-c3nnn[nH]3)cc2)cc1` (stereo not drawn) [Example 260, 5-{3-(4-Fluoro-2-methyl-phenyl)-1-[(E)-hydroxyimino]-3-[4′-(1H-tetrazol-5-yl)-biphenyl-4-yl]-propyl}-1-methyl-1H-pyridin-2-one], the concentration giving a half-maximal response (EC50) came out at 0.04 µM.

In the case of `CCn1cc(/C(CC(c2ccc(Br)cc2)c2ccccc2C)=N\O)ccc1=O` (stereo not drawn) [Example 165, 5-{3-(4-Bromo-phenyl)-1-[(Z)-hydroxyimino]-3-o-tolyl-propyl}-1-ethyl-1H-pyridin-2-one], the midpoint of the response, the EC50, lay at 0.55 µM.

In turn, `COCCN(C)c1ccc(C(C/C(=N\O)c2ccncc2)c2ccccc2C)cc1` (stereo not drawn) [Example 39, (E)-3-{4-[(2-Methoxy-ethyl)-methyl-amino]-phenyl}-1-pyridin-4-yl-3-o-tolyl-propan-1-one oxime] showed an EC50 of 0.075 µM.

As to `Cc1cc(/C(C[C@H](c2ccc(C3CCN(S(N)(=O)=O)CC3)cc2)c2ccc(Cl)cc2C)=N/O)ccn1` [Example 480, (R,E)-4-(4-(1-(4-Chloro-2-methylphenyl)-3-(hydroxyimino)-3-(2-methylpyridin-4-yl)propyl)phenyl)piperidine-1-sulfonamide], the EC50 worked out at 0.02 µM.

Take `Cn1cc(/C(CC(CCCC(F)(F)F)c2ccc(Br)cc2)=N/O)ccc1=O` (stereo not drawn) [Example 175, 5-{3-(4-Bromo-phenyl)-7,7,7-trifluoro-1-[(E)-hydroxyimino]-heptyl}-1-methyl-1H-pyridin-2-one]: the EC50 is 1.31 µM.

`Cc1cc(/C(C[C@H](c2ccc(C(=O)N[C@H]3CC[C@H](C(=O)O)CC3)cc2)c2ccccc2C)=N/O)ccn1` [Example 276, Trans-4-{4-[(R)-3-[(E)-Hydroxyimino]-3-(2-methyl-pyridin-4-yl)-1-o-tolyl-propyl]-benzoylamino}-cyclohexanecarboxylic acid] yielded an EC50 of 0.059 µM.

As for `CC(C)CC(CC(=NO)c1ccncc1)c1ccc(Br)cc1` (racemic) [Example 114, 3-(4-Bromo-phenyl)-5-methyl-1-pyridin-4-yl-hexan-1-one oxime], the EC50 is 1.08 µM.

In turn, `COc1cc(C(CC(c2ccc(Br)cc2)c2ccccc2C)=NO)ccn1` (racemic) [Example 109, 3-(4-Bromo-phenyl)-1-(2-methoxy-pyridin-4-yl)-3-o-tolyl-propan-1-one oxime] came in with an EC50 of 0.702 µM.

In the case of `Cc1cc(/C(C[C@H](c2ccc(O)cc2)c2ccccc2C)=N/O)ccn1` [Example 363, (R)-3-(4-Hydroxy-phenyl)-1-(2-methyl-pyridin-4-yl)-3-o-tolyl-propan-1-one oxime], the 50% effective concentration (EC50) was determined as 0.028 µM.

As to `Cc1ccccc1C(C/C(=N\O)c1ccc(=O)n(C)c1)c1ccc(Oc2cccc(C(=O)O)c2)cc1F` (stereo not drawn) [Example 235, 3-{3-Fluoro-4-[3-[(E)-hydroxyimino]-3-(1-methyl-6-oxo-1,6-dihydro-pyridin-3-yl)-1-o-tolyl-propyl]-phenoxy}-benzoic acid], the EC50 amounted to 0.043 µM.

Values taken from patent publication US8765730B2 (Hoffmann-La Roche Inc, priority 2010, dated 2014).
